According to ChEMBL document CHEMBL1201862, “PubChem BioAssay data set” (2004):
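96-well plates; 48 h exposure; 5 concentrations. Endpoints by linear interpolation between flanking doses. Not reached: highest tested concentration assigned. At the GI50, growth is halved.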 Activity calls are given as the source filed them. No stated cut-off is given here; in the data, active = GI50 up to about 1.1 µM and inactive = higher.

Columns and labels:
Experiment in all cases: NCI tumour cell line growth inhibition, 48 h
786-0 = test system: 786-0
A498 = test system: A498
A549 = test system: A549
ACHN = test system: ACHN
BT-549 = test system: BT-549
CAKI-1 = test system: CAKI-1
CCRF-CEM = test system: CCRF-CEM
DU-145 = test system: DU-145
EKVX = test system: EKVX
HCC 2998 = test system: HCC 2998
HCT-116 = test system: HCT-116
HCT-15 = test system: HCT-15
HOP-62 = test system: HOP-62
HOP-92 = test system: HOP-92
HT-29 = test system: HT-29
Hs-578T = test system: Hs-578T
IGROV-1 = test system: IGROV-1
K562 = test system: K562
KM12 = test system: KM12
LOX IMVI = test system: LOX IMVI
M14 = test system: M14
MCF7 = test system: MCF7
MDA-MB-231 = test system: MDA-MB-231
MDA-MB-435 = test system: MDA-MB-435
MOLT-4 = test system: MOLT-4
Malme-3M = test system: Malme-3M
NCI-H226 = test system: NCI-H226
NCI-H23 = test system: NCI-H23
NCI-H460 = test system: NCI-H460
NCI-H522 = test system: NCI-H522
NCI/ADR-RES = test system: NCI/ADR-RES
OVCAR-3 = test system: OVCAR-3
OVCAR-4 = test system: OVCAR-4
OVCAR-5 = test system: OVCAR-5
OVCAR-8 = test system: OVCAR-8
PC-3 = test system: PC-3
RPMI-8226 = test system: RPMI-8226
RXF 393 = test system: RXF 393
SF-268 = test system: SF-268
SF-295 = test system: SF-295
SF-539 = test system: SF-539
SK-MEL-28 = test system: SK-MEL-28
SK-MEL-2 = test system: SK-MEL-2
SK-MEL-5 = test system: SK-MEL-5
SN12C = test system: SN12C
SR = test system: SR
SW-620 = test system: SW-620
TK-10 = test system: TK-10
U-251 = test system: U-251
UACC-257 = test system: UACC-257
UACC-62 = test system: UACC-62
UO-31 = test system: UO-31
COLO 205 = test system: COLO 205
HL-60 = test system: HL-60
MDA-N = test system: MDA-N
SK-OV-3 = test system: SK-OV-3
SNB-19 = test system: SNB-19
SNB-75 = test system: SNB-75
T47D = test system: T47D

Question: Which results are given for `COc1ccc(OC)c([N+](=O)[O-])c1-c1nc2sc(C)cn2c1/C=N/N=C(N)N`?
Answer: GI50 (786-0): 44.3 µM (inactive); GI50 (A498): 34.7 µM (inactive); GI50 (A549): 48.6 µM (inactive); GI50 (ACHN): 41 µM (inactive); GI50 (BT-549): 15.2 µM (inactive); GI50 (CAKI-1): 28.7 µM (inactive); GI50 (CCRF-CEM): 42.2 µM (inactive); GI50 (DU-145): 30.3 µM (inactive); GI50 (EKVX): 82.2 µM (inactive); GI50 (HCC 2998): 20.6 µM (inactive); GI50 (HCT-116): 39.5 µM (inactive); GI50 (HCT-15): > 100 µM; GI50 (HOP-62): 43.5 µM (inactive); GI50 (HOP-92): 17.5 µM (inactive); GI50 (HT-29): 25.8 µM (inactive); GI50 (Hs-578T): 31 µM (inactive); GI50 (IGROV-1): 14.5 µM (inactive); GI50 (K562): 2.49 µM (inactive); GI50 (KM12): 20.5 µM (inactive); GI50 (LOX IMVI): 70.1 µM (inactive); GI50 (M14): 32.8 µM (inactive); GI50 (MCF7): 15.1 µM (inactive); GI50 (MDA-MB-231): 23.7 µM (inactive); GI50 (MDA-MB-435): 20.1 µM (inactive); GI50 (MOLT-4): < 0.01 µM (active); GI50 (Malme-3M): 19.1 µM (inactive); GI50 (NCI-H226): 36.1 µM (inactive); GI50 (NCI-H23): 22.8 µM (inactive); GI50 (NCI-H460): 29.6 µM (inactive); GI50 (NCI-H522): 20 µM (inactive); GI50 (NCI/ADR-RES): > 100 µM (inactive); GI50 (OVCAR-3): 28.9 µM (inactive); GI50 (OVCAR-4): 22.3 µM (inactive); GI50 (OVCAR-5): 51.4 µM (inactive); GI50 (OVCAR-8): 25.7 µM (inactive); GI50 (PC-3): 23.3 µM (inactive); GI50 (RPMI-8226): 37.8 µM (inactive); GI50 (RXF 393): 28.2 µM (inactive); GI50 (SF-268): 27.6 µM (inactive); GI50 (SF-295): 24.3 µM (inactive); GI50 (SF-539): 38.4 µM (inactive); GI50 (SK-MEL-28): 21.4 µM (inactive); GI50 (SK-MEL-2): 21.5 µM (inactive); GI50 (SK-MEL-5): 18.7 µM (inactive); GI50 (SN12C): 23.4 µM (inactive); GI50 (SR): < 0.01 µM (active); GI50 (SW-620): 29.9 µM (inactive); GI50 (TK-10): 20.6 µM (inactive); GI50 (U-251): 31.6 µM (inactive); GI50 (UACC-257): 18 µM (inactive); GI50 (UACC-62): 22.7 µM (inactive); GI50 (UO-31): > 100 µM (inactive)

Question: For `CN(C)c1ccc(/C(Br)=C2\OC(=O)c3ccccc32)cc1`, which GI50 (786-0) is on record?
Answer: > 100 µM (inactive)

Question: What about the GI50 (A498) of the same molecule?
Answer: > 100 µM (inactive)

Question: What about the GI50 (A549) of the same molecule?
Answer: > 100 µM (inactive)

Question: And the GI50 (ACHN)?
Answer: > 100 µM (inactive)

Question: What about the GI50 (CAKI-1) of the same molecule?
Answer: > 100 µM (inactive)

Question: What about the GI50 (CCRF-CEM) of the same molecule?
Answer: 51.4 µM (inactive)

Question: And the GI50 (COLO 205)?
Answer: 56.1 µM (inactive)

Question: And the GI50 (DU-145)?
Answer: > 100 µM (inactive)

Question: What about the GI50 (EKVX) of the same molecule?
Answer: > 100 µM (inactive)

Question: And the GI50 (HCC 2998)?
Answer: > 100 µM (inactive)

Question: What about the GI50 (HCT-116) of the same molecule?
Answer: > 100 µM (inactive)

Question: What about the GI50 (HCT-15) of the same molecule?
Answer: 87.3 µM

Question: What about the GI50 (HL-60) of the same molecule?
Answer: 34 µM (inactive)

Question: What about the GI50 (HOP-62) of the same molecule?
Answer: > 100 µM (inactive)

Question: What about the GI50 (HT-29) of the same molecule?
Answer: 42.3 µM (inactive)

Question: What about the GI50 (Hs-578T) of the same molecule?
Answer: > 100 µM (inactive)

Question: And the GI50 (IGROV-1)?
Answer: > 100 µM (inactive)

Question: And the GI50 (K562)?
Answer: 59.6 µM (inactive)

Question: What about the GI50 (KM12) of the same molecule?
Answer: 39.2 µM (inactive)

Question: What about the GI50 (LOX IMVI) of the same molecule?
Answer: > 100 µM (inactive)

Question: And the GI50 (M14)?
Answer: > 100 µM (inactive)

Question: And the GI50 (MCF7)?
Answer: 0.759 µM (active)

Question: And the GI50 (MDA-MB-231)?
Answer: > 100 µM (inactive)

Question: And the GI50 (MDA-MB-435)?
Answer: 36.1 µM (inactive)

Question: What about the GI50 (MDA-N) of the same molecule?
Answer: 40.1 µM (inactive)

Question: And the GI50 (MOLT-4)?
Answer: 37.2 µM (inactive)

Question: And the GI50 (Malme-3M)?
Answer: 67.1 µM (inactive)

Question: And the GI50 (NCI-H226)?
Answer: 24.4 µM (inactive)

Question: What about the GI50 (NCI-H23) of the same molecule?
Answer: > 100 µM (inactive)

Question: And the GI50 (NCI-H460)?
Answer: > 100 µM (inactive)

Question: What about the GI50 (NCI/ADR-RES) of the same molecule?
Answer: 31.8 µM (inactive)

Question: And the GI50 (OVCAR-4)?
Answer: > 100 µM (inactive)

Question: And the GI50 (OVCAR-5)?
Answer: 2.95 µM (inactive)

Question: And the GI50 (OVCAR-8)?
Answer: > 100 µM (inactive)

Question: What about the GI50 (PC-3) of the same molecule?
Answer: > 100 µM (inactive)

Question: And the GI50 (RPMI-8226)?
Answer: 24.3 µM (inactive)

Question: What about the GI50 (SF-268) of the same molecule?
Answer: > 100 µM (inactive)

Question: And the GI50 (SF-295)?
Answer: 76.2 µM (inactive)

Question: And the GI50 (SF-539)?
Answer: > 100 µM (inactive)

Question: And the GI50 (SK-MEL-28)?
Answer: > 100 µM (inactive)

Question: What about the GI50 (SK-MEL-2) of the same molecule?
Answer: 92.9 µM (inactive)

Question: What about the GI50 (SK-MEL-5) of the same molecule?
Answer: 77.6 µM (inactive)

Question: And the GI50 (SK-OV-3)?
Answer: > 100 µM (inactive)

Question: And the GI50 (SN12C)?
Answer: > 100 µM (inactive)

Question: And the GI50 (SNB-19)?
Answer: > 100 µM (inactive)

Question: And the GI50 (SNB-75)?
Answer: 80.7 µM (inactive)

Question: And the GI50 (SR)?
Answer: 34.8 µM (inactive)

Question: What about the GI50 (SW-620) of the same molecule?
Answer: 93.5 µM (inactive)

Question: And the GI50 (T47D)?
Answer: 11.3 µM (inactive)

Question: What about the GI50 (TK-10) of the same molecule?
Answer: > 100 µM (inactive)

Question: And the GI50 (U-251)?
Answer: > 100 µM (inactive)

Question: And the GI50 (UACC-257)?
Answer: > 100 µM (inactive)

Question: And the GI50 (UACC-62)?
Answer: > 100 µM (inactive)

Question: And the GI50 (UO-31)?
Answer: > 100 µM (inactive)
